Here are results for 103 compounds from PubChem BioAssay AID1549 (Sanford-Burnham Center for Chemical Genomics, 2009).

The structures appear in SMILES notation. The source made the active and inactive calls. The rule behind the calls is not given here.

As usually defined, the Kd is the equilibrium constant for the complex coming apart.

In this experiment the target is Influenza A virus M2 proton channel (A/TW/4845/1999 H1N1). The experiment in a line: NMR binding screen, influenza A virus M2 proton channel, Kd (AID 1549). Conditions: M2 protein.
For the compound `NC(=O)CN1CCCCCC1=O`, the Kd is > 4 mM (inactive).
Then `COC(=O)CC1NC2CCCCC2NC1=O` (stereo not drawn), with > 4 mM (inactive); and `Cc1ccc(-c2c(C)n([O-])c3c([n+]2=O)CCCC3)o1`, with > 4 mM (inactive).
Then `O=C(c1nc2ccccc2s1)N1CCSCC1`, with > 4 mM (inactive); and `O=C(NCc1ccc2c(c1)OCO2)c1cccs1`, with > 4 mM (inactive).
Turning to `COc1cccc(NC(=O)c2cnn(C)c2Cl)c1`, the Kd is > 4 mM (inactive).
With `CC(=O)Nc1cccc(N2C(=O)CCC2=O)c1`, the Kd is > 4 mM (inactive).
Then `O=C(OC[C@H]1O[C@H](OC(=O)c2cc(O)c(O)c(OC(=O)c3cc(O)c(O)c(O)c3)c2)[C@H](OC(=O)c2cc(O)c(O)c(OC(=O)c3cc(O)c(O)c(O)c3)c2)[C@@H](OC(=O)c2cc(O)c(O)c(OC(=O)c3cc(O)c(O)c(O)c3)c2)[C@@H]1OC(=O)c1cc(O)c(O)c(OC(=O)c2cc(O)c(O)c(O)c2)c1)c1cc(O)c(O)c(OC(=O)c2cc(O)c(O)c(O)c2)c1`, with > 4 mM (inactive).
Then `O=C(O)c1ccc2c(c1)OCCCO2`, with > 4 mM (inactive); and `Nc1ccc(N2CCOCC2)cc1`, with > 4 mM (inactive); and `Cn1c(SCC(N)=O)nnc1-c1c[nH]c2ccccc12`, with > 4 mM (inactive).
Next, `OCC1CCCN2CCCCC12` (stereo not drawn): > 4 mM (inactive).
For `Clc1ncnc2[nH]ncc12`, the Kd is > 4 mM (inactive).
As to `O=C(O)C1CSC(c2ccco2)N1` (stereo not drawn), the Kd is > 4 mM (inactive).
Next, `Cc1ncoc1C(=O)Nc1ccccc1C(N)=O`: > 4 mM (inactive); `CC(=O)NC(=S)Nc1ccc(N(C)C(C)=O)cc1`: > 4 mM (inactive).
Then `COC(=O)c1cc2ccccc2cn1`, with > 4 mM (inactive); and `CC(Sc1ncn[nH]1)C(=O)O` (stereo not drawn), with > 4 mM (inactive); and `O=C(Nc1ccccc1)c1cnc2n(c1=O)CCS2`, with > 4 mM (inactive).
Next, `Nc1cc(C(=O)N2CCCC2)cc(C(=O)N2CCCC2)c1`: > 4 mM (inactive).
As for `O=C(Nc1ccc2ccccc2c1)c1cnccn1`, the Kd is > 4 mM (inactive).
Then `COc1ccccc1NC(=O)NC(N)=O`, with > 4 mM (inactive); and `OC1CCNC2CCCCC12` (stereo not drawn), with > 4 mM (inactive); and `Cc1c(C)n2c(SCC(N)=O)nnc2[nH]c1=O`, with > 4 mM (inactive).
With `OCc1cc(-c2cccs2)on1`, the Kd was > 4 mM (inactive).
Then `Cc1cc(O)cc(=O)n1CCCC(=O)O`, with > 4 mM (inactive); and `CC(=O)Nc1cccc(N(C)S(C)(=O)=O)c1`, with > 4 mM (inactive).
Next, `COC(=O)Nc1nc2c(C)cccc2s1`: > 4 mM (inactive); `O=C1CS/C(=N/S(=O)(=O)c2ccccc2)N1`: > 4 mM (inactive); `C(=N\c1nccs1)/c1cccnc1`: > 4 mM (inactive).
Next, `c1ccc2[nH]c(SCc3cscn3)nc2c1`: > 4 mM (inactive); `Nc1nnc(Cc2ccc(Cl)cc2)s1`: > 4 mM (inactive); `Cc1cc(C)nc(/N=C(/N)N2CCOCC2)n1`: > 4 mM (inactive).
With `CNC(C)[C@H](O)c1ccccc1` (stereo partly drawn), the Kd is > 4 mM (inactive).
Then `NC(=O)C1CCN(C(=O)c2ccccc2F)CC1`, with > 4 mM (inactive); and `CC(=O)CC1(O)C(=O)Nc2ccccc21` (stereo not drawn), with > 4 mM (inactive).
`CC[C@H](CCC(C)[C@H]1CCC2C3CCC4C[C@@H](O)CC[C@]4(C)C3CC[C@@]21C)C(C)C` (stereo partly drawn): the Kd was > 4 mM (inactive).
Next, `c1ccc(-n2nnnc2Oc2cccc3cccnc23)cc1`: > 4 mM (inactive); `Cc1ccccc1-n1c(-c2cccnc2)n[nH]c1=S`: > 4 mM (inactive).
Next, `Nc1cc(N)nc(SCc2cccnc2)n1`: > 4 mM (inactive).
Next, `C=C1C(=O)OC2CC1C(OC(C)=O)C/C(C)=C/CC/C(C)=C/CC[C@]2(C)O` (stereo partly drawn): > 4 mM (inactive).
As for `O=C(O)C1CN(Cc2ccccc2)CCO1` (stereo not drawn), the Kd was > 4 mM (inactive).
Then `Cc1ccc(C)c(S(=O)(=O)NCc2cccnc2)c1`, with > 4 mM (inactive); and `FC(F)(F)c1nnc2ccc(N3CCOCC3)nn12`, with > 4 mM (inactive).
Then `CCCCCc1c2c(cc(O)c1C(=O)O)OC(=O)c1c(cc(OC)cc1C(=O)CCCC)O2`, with > 4 mM (inactive); and `O=C1C=CC2=C3c4cc(O)c(O)cc4C[C@@]3(O)COC2=C1`, with > 4 mM (inactive); and `O=C1CCN(c2ccccc2)N1`, with > 4 mM (inactive).
Next, `CC(=O)NS(=O)(=O)c1ccc(C)cc1`: > 4 mM (inactive); `CC(=O)Oc1ccc(N2C(=O)C3C4C=CC(O4)C3C2=O)cc1` (stereo not drawn): > 4 mM (inactive).
In the case of `Nc1cc(C(=O)O)ccc1N1CCCCCC1`, the Kd was > 4 mM (inactive).
Next, `O=C(c1cccnc1Cl)N1CCOCC1`: > 4 mM (inactive).
`O=C(O)c1ccc2c(c1)OCCO2`: the Kd was > 4 mM (inactive).
Next, `CC1(C)Cn2c(nnc2-c2ccccc2)S1`: > 4 mM (inactive); `CN1CCC(N(C)Cc2cccnc2)CC1`: > 4 mM (inactive).
Next, `COc1ccc(NC(=O)CSc2nccc(=O)[nH]2)cc1`: > 4 mM (inactive).
For `NC1=NC(=O)/C(=C/c2cccs2)S1`, the Kd was > 4 mM (inactive).
As for `COC(=O)CC1SC(=O)NC1=O` (stereo not drawn), the Kd is > 4 mM (inactive).
Then `Nc1ccc(CN2CCS(=O)(=O)CC2)cc1`, with > 4 mM (inactive).
Next, `O=c1[nH]oc2ccccc12`: > 4 mM (inactive); `CCOC(=O)c1cc(C)[nH]n1`: > 4 mM (inactive).
Regarding `COCC(=O)/C=C1\Sc2ccccc2N1C`, the Kd is > 4 mM (inactive).
Regarding `COc1ccc2[nH]cc(CN(C)C)c2c1`, the Kd is > 4 mM (inactive).
Then `N=c1c2c3c(sc2ncn1N)CCCC3`, with > 4 mM (inactive); and `CCCS(=O)(=O)N1CCN(c2ccccn2)CC1`, with > 4 mM (inactive).
Next, `O=C(O)CCn1c(=O)oc2ccccc21`: > 4 mM (inactive); `CN(C)C(=O)CCNS(=O)(=O)c1ccccc1`: > 4 mM (inactive).
With `Cc1cc(C(=O)NCc2cccs2)c(C)o1`, the Kd is > 4 mM (inactive).
Then `Nc1ccc2c(c1)S(=O)(=O)C=C2`, with > 4 mM (inactive); and `COc1ccccc1NC(=O)/C=N/O`, with > 4 mM (inactive); and `CC1=C(/C=C/C(C)=C/C=C/C(C)=C/CO)C(C)(C)CCC1`, with > 4 mM (inactive).
Then `COC(=O)CCSCC(=O)Nc1nccs1`, with > 4 mM (inactive); and `CC(=O)NCc1nc2ccccc2[nH]1`, with > 4 mM (inactive); and `CCCn1c(C)cc(=O)[nH]c1=O`, with > 4 mM (inactive).
On to `O=C(Nn1cnnc1)c1ccccc1Cl`, for which the Kd was > 4 mM (inactive).
Then `O=C(O)Cn1nnn(-c2ccccc2)c1=S`, with > 4 mM (inactive).
For `Cc1ccnc(NS(=O)(=O)c2ccccc2)n1`, the Kd was > 4 mM (inactive).
Then `OCC(O)C(O)C(O)CO` (stereo not drawn), with > 4 mM (inactive).
Next, `COc1cc2nc[nH]c(=O)c2cc1OC`: > 4 mM (inactive).
Then `O=C1CSC(=O)N1CN1CCCC1`, with > 4 mM (inactive); and `Cc1nc(NC2=NCCC(=O)N2)nc2ccccc12`, with > 4 mM (inactive).
`Cc1cc(N)ccc1NC(=O)c1ccco1`: the Kd is > 4 mM (inactive).
As to `NC(N)=NOCC[C@H](N)C(=O)O`, the Kd was > 4 mM (inactive).
Next, `c1ccc(SCc2nc(-c3ccncc3)no2)cc1`: > 4 mM (inactive).
Next, `Cc1ccc(CO)o1`: > 4 mM (inactive).
As for `CSc1ncnc2nc[nH]c12`, the Kd was > 4 mM (inactive).
Next, `Cc1ccc(C(=O)n2cnnc2N)cc1C`: > 4 mM (inactive); `Cc1ccccc1C(=O)Nn1cnnc1`: > 4 mM (inactive).
Then `CC(=O)c1ccc(NS(=O)(=O)c2cccc(C)c2)cc1`, with > 4 mM (inactive); and `Cn1cnc2ccc([N+](=O)[O-])cc2c1=O`, with > 4 mM (inactive).
Next, `Cc1cc(NC(=O)CS(=O)(=O)c2ccccc2)no1`: > 4 mM (inactive); `OCc1nc2ccccc2s1`: > 4 mM (inactive).
Take `COc1ccc([C@@H]2CC(=O)c3c(O)cc(O[C@@H]4O[C@H](CO[C@H]5O[C@@H](C)[C@H](O)[C@@H](O)[C@H]5O)[C@@H](O)[C@H](O)[C@H]4O)cc3O2)cc1O`: the Kd was > 4 mM (inactive).
Next, `Cc1cc2cc3c(C)cc(=O)oc3c(C)c2o1`: > 4 mM (inactive); `CN1C2CC3C[C@H]1C(O3)C2O` (stereo partly drawn): > 4 mM (inactive); `Cn1ccc(NC(=S)NC2CCCC2)n1`: > 4 mM (inactive).
Then `COc1cc(C(C)=O)cc(OC)c1O`, with > 4 mM (inactive); and `CC(=O)OC/C=C(\C)CC/C=C(\C)CC/C=C(\C)CC/C=C(\C)CC/C=C(\C)CC/C=C(\C)CC/C=C(\C)CC/C=C(\C)CCC=C(C)C`, with > 4 mM (inactive); and `Oc1ccccc1-c1cc(C(F)(F)F)[nH]n1`, with > 4 mM (inactive).
Then `CCN(CC)S(=O)(=O)c1ccc(F)cc1`, with > 4 mM (inactive); and `c1ccc2c(c1)[nH]c1cnccc12`, with > 4 mM (inactive).
In the case of `C=Cc1c(C)c2cc3[nH]c(cc4nc(cc5nc(cc1[nH]2)C(C)=C5CCC(=O)O)C(CCC(=O)O)=C4C)c(C)c3C=C`, the Kd is > 4 mM (inactive).
In the case of `O=C(O)c1ccc2c(c1)OCO2`, the Kd is > 4 mM (inactive).
Then `COc1cc2c3cc1Oc1cc(ccc1O)C[C@@H]1c4c(cc(OC)c(O)c4Oc4ccc(cc4)C[C@@H]3N(C)CC2)CC[N+]1(C)C`, with > 4 mM (inactive).
